The values below are quoted from earlier work in patent publication US20230000917A1, “TREATMENT OF HEPATITIS B VIRUS (HBV) INFECTION” (UCL BUSINESS LTD, priority 2019, published 2023).

SMILES strings stand for the structures.

The conditions of data set [1]: in vivo.
For data set [2] the following is noted: in vivo. The source holds these as a separate data set.
Data set [3] concerns macrophage foam cell formation and atherosclerosis progression. Conditions: oral administration, animal models.

Regarding `CC(C)c1cc(C(C)C)c(CC(=O)NS(=O)(=O)Oc2c(C(C)C)cccc2C(C)C)c(C(C)C)c1` [Avasimibe], the oral bioavailability entry in data set [1] is “orally bioavailable”. Also, in data set [2], the “plasma VLDL-cholesterol” value was “significantly reduce” and the plasma total triglyceride result is “significantly reduce”.
In the case of `CSc1cc(C)nc(SC)c1NC(=O)CN1CCN(CCSc2nc3ccccc3[nH]2)CC1.Cl.Cl` [K604, 4-[2-(1H-Benzimidazol-2-ylthio)ethyl]-N-[6-methyl-2,4-bis(methylthio)-3-pyridinyl]-1-piperazineacetamide dihydrochloride], in data set [3], the “macrophage foam cell formation and atherosclerosis progression” value was “promising results”.
